Molecular target: T1, B. thetaiotaomicron NanH sialidase (NanH-His) (Bacteroides thetaiotaomicron, UniProt Q8AAK9)
T1 construct: gene BT_0455
T1 sequence (Q8AAK9 23-544): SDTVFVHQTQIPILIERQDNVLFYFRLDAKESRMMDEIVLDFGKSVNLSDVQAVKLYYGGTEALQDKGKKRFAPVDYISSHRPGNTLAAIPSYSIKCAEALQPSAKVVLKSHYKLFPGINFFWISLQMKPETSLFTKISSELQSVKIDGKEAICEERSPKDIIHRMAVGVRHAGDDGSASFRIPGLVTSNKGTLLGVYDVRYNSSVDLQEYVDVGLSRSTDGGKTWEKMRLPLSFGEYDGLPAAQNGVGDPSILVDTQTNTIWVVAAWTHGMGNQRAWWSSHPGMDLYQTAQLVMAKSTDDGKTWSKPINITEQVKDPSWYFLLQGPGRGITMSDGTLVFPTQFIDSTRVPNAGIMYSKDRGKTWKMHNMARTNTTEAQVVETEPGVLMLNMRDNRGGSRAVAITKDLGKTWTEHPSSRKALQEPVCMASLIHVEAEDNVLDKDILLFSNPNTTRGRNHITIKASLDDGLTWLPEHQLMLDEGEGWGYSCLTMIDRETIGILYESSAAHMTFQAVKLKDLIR
Assay: fluorogenic sialidase assay, 4-methylumbelliferone release (ex […] nm, em […] nm)
Format: biochemical
Settings: 100 uM 4-MU-Sia, PBS pH 7.4; used to test fractions and estimate milliunits

CC(=O)N[C@H]1[C@H]([C@H](O)[C@H](O)CO)OC(Oc2ccc3c(C)cc(=O)oc3c2)(C(=O)O)C[C@@H]1O (stereo partly shown) [4-methylumbelliferyl-N-acetylneuraminic acid]
fluorogenic sialidase assay, 4-methylumbelliferone release (ex 365 nm, em 440 nm): Fractions were tested for activity with the fluorogenic sialidase substrate 4-methylumbelliferyl-N-acetylneuraminic acid
